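Exposure lasted 48 hours, with cells grown in 96-well plates and compounds tested at five concentrations. The concentration for 50% growth inhibition is given as GI50.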 Active and inactive are the calls of the source. No stated cut-off is given here; in the data, active = GI50 up to about 1.1 µM and inactive = higher.
What was measured:
Experiment in all cases: NCI-60 cell line screen, 48 h
786-0 = test system: 786-0
A498 = test system: A498
A549 = test system: A549
ACHN = test system: ACHN
BT-549 = test system: BT-549
CAKI-1 = test system: CAKI-1
CCRF-CEM = test system: CCRF-CEM
COLO 205 = test system: COLO 205
DU-145 = test system: DU-145
EKVX = test system: EKVX
HCC 2998 = test system: HCC 2998
HCT-116 = test system: HCT-116
HCT-15 = test system: HCT-15
HL-60 = test system: HL-60
HOP-62 = test system: HOP-62
HOP-92 = test system: HOP-92
HT-29 = test system: HT-29
Hs-578T = test system: Hs-578T
IGROV-1 = test system: IGROV-1
K562 = test system: K562
KM12 = test system: KM12
LOX IMVI = test system: LOX IMVI
M14 = test system: M14
MCF7 = test system: MCF7
MDA-MB-231 = test system: MDA-MB-231
MDA-MB-435 = test system: MDA-MB-435
MDA-N = test system: MDA-N
MOLT-4 = test system: MOLT-4
Malme-3M = test system: Malme-3M
NCI-H226 = test system: NCI-H226
NCI-H23 = test system: NCI-H23
NCI-H460 = test system: NCI-H460
NCI-H522 = test system: NCI-H522
NCI/ADR-RES = test system: NCI/ADR-RES
OVCAR-3 = test system: OVCAR-3
OVCAR-4 = test system: OVCAR-4
OVCAR-5 = test system: OVCAR-5
OVCAR-8 = test system: OVCAR-8
PC-3 = test system: PC-3
RPMI-8226 = test system: RPMI-8226
RXF 393 = test system: RXF 393
SF-268 = test system: SF-268
SF-295 = test system: SF-295
SF-539 = test system: SF-539
SK-MEL-28 = test system: SK-MEL-28
SK-MEL-2 = test system: SK-MEL-2
SK-MEL-5 = test system: SK-MEL-5
SK-OV-3 = test system: SK-OV-3
SN12C = test system: SN12C
SNB-19 = test system: SNB-19
SNB-75 = test system: SNB-75
SR = test system: SR
SW-620 = test system: SW-620
T47D = test system: T47D
TK-10 = test system: TK-10
U-251 = test system: U-251
UACC-257 = test system: UACC-257
UACC-62 = test system: UACC-62
UO-31 = test system: UO-31

Oc1cc(-c2ccccc2)cn2c1nc1ccccc12
GI50 (786-0): 3.21 µM (inactive) | GI50 (A498): 11 µM (inactive) | GI50 (A549): 1.73 µM (inactive) | GI50 (ACHN): 6.41 µM (inactive) | GI50 (BT-549): 4.55 µM (inactive) | GI50 (CAKI-1): 2.91 µM (inactive) | GI50 (CCRF-CEM): 3.4 µM (inactive) | GI50 (COLO 205): 21.3 µM (inactive) | GI50 (DU-145): 4.55 µM (inactive) | GI50 (EKVX): > 94.2 µM (inactive) | GI50 (HCC 2998): 4.68 µM (inactive) | GI50 (HCT-116): 0.767 µM (active) | GI50 (HCT-15): 0.643 µM | GI50 (HL-60): 0.482 µM (active) | GI50 (HOP-62): 2.4 µM (inactive) | GI50 (HOP-92): > 25.5 µM (inactive) | GI50 (HT-29): 8.63 µM (inactive) | GI50 (Hs-578T): 2.19 µM (inactive) | GI50 (IGROV-1): 1.43 µM (inactive) | GI50 (K562): 0.525 µM (active) | GI50 (KM12): 1.5 µM (inactive) | GI50 (LOX IMVI): 1.12 µM (active) | GI50 (M14): 0.9 µM (active) | GI50 (MCF7): 1.22 µM (inactive) | GI50 (MDA-MB-231): 0.382 µM (active) | GI50 (MDA-MB-435): 0.189 µM (active) | GI50 (MDA-N): 0.253 µM (active) | GI50 (MOLT-4): 3.44 µM (inactive) | GI50 (Malme-3M): 1.41 µM (inactive) | GI50 (NCI-H226): > 25.4 µM (inactive) | GI50 (NCI-H23): 6.37 µM (inactive) | GI50 (NCI-H460): 0.76 µM (active) | GI50 (NCI-H522): 0.243 µM (active) | GI50 (NCI/ADR-RES): 1.21 µM (inactive) | GI50 (OVCAR-3): 1.22 µM (inactive) | GI50 (OVCAR-4): 4.23 µM (inactive) | GI50 (OVCAR-5): > 100 µM (inactive) | GI50 (OVCAR-8): 2.42 µM (inactive) | GI50 (PC-3): 3.85 µM (inactive) | GI50 (RPMI-8226): 2.3 µM (inactive) | GI50 (RXF 393): > 22 µM (inactive) | GI50 (SF-268): 3.92 µM (inactive) | GI50 (SF-295): 6 µM (inactive) | GI50 (SF-539): 2.59 µM (inactive) | GI50 (SK-MEL-28): 4.31 µM (inactive) | GI50 (SK-MEL-2): 2.11 µM (inactive) | GI50 (SK-MEL-5): 0.476 µM (active) | GI50 (SK-OV-3): 1.09 µM (active) | GI50 (SN12C): 4.06 µM (inactive) | GI50 (SNB-19): 3.45 µM (inactive) | GI50 (SNB-75): > 36.3 µM (inactive) | GI50 (SR): 3.21 µM (inactive) | GI50 (SW-620): 0.544 µM (active) | GI50 (T47D): 1.5 µM (inactive) | GI50 (TK-10): > 100 µM (inactive) | GI50 (U-251): 2.51 µM (inactive) | GI50 (UACC-257): > 63.5 µM (inactive) | GI50 (UACC-62): 0.33 µM (active) | GI50 (UO-31): 2.64 µM (inactive)

NC(Cc1ccc(OCc2ccccc2)cc1)C(=O)NC(Cc1ccccc1)C(=O)Oc1c(Cl)c(Cl)c(Cl)c(Cl)c1Cl (stereo unspecified)
GI50 (A498): 20.9 µM (inactive) | GI50 (A549): 18.4 µM (inactive) | GI50 (ACHN): 16.5 µM (inactive) | GI50 (BT-549): 17.5 µM (inactive) | GI50 (CAKI-1): 16.7 µM (inactive) | GI50 (CCRF-CEM): > 100 µM (inactive) | GI50 (COLO 205): 14.6 µM (inactive) | GI50 (DU-145): 12.8 µM (inactive) | GI50 (EKVX): 17.7 µM (inactive) | GI50 (HCC 2998): 19.1 µM (inactive) | GI50 (HCT-116): 17.5 µM (inactive) | GI50 (HCT-15): 16.4 µM | GI50 (HL-60): 69.5 µM (inactive) | GI50 (HOP-62): 16.6 µM (inactive) | GI50 (HOP-92): 11.9 µM (inactive) | GI50 (HT-29): 17.5 µM (inactive) | GI50 (Hs-578T): 14 µM (inactive) | GI50 (IGROV-1): 15.3 µM (inactive) | GI50 (K562): 53.1 µM (inactive) | GI50 (KM12): 15.4 µM (inactive) | GI50 (LOX IMVI): 14 µM (inactive) | GI50 (M14): 14.2 µM (inactive) | GI50 (MCF7): 19 µM (inactive) | GI50 (MDA-MB-231): 13 µM (inactive) | GI50 (MDA-MB-435): 18.3 µM (inactive) | GI50 (MDA-N): 12.7 µM (inactive) | GI50 (MOLT-4): 39.2 µM (inactive) | GI50 (Malme-3M): 20.9 µM (inactive) | GI50 (NCI-H226): 13.2 µM (inactive) | GI50 (NCI-H23): 16.8 µM (inactive) | GI50 (NCI-H460): 14.7 µM (inactive) | GI50 (NCI-H522): 23.1 µM (inactive) | GI50 (NCI/ADR-RES): 17.9 µM (inactive) | GI50 (OVCAR-3): 15.5 µM (inactive) | GI50 (OVCAR-4): 17.4 µM (inactive) | GI50 (OVCAR-5): 15.6 µM (inactive) | GI50 (OVCAR-8): 16.5 µM (inactive) | GI50 (PC-3): 17.7 µM (inactive) | GI50 (RPMI-8226): 40.9 µM (inactive) | GI50 (RXF 393): 15 µM (inactive) | GI50 (SF-268): 20.3 µM (inactive) | GI50 (SF-539): 16.7 µM (inactive) | GI50 (SK-MEL-28): 16.5 µM (inactive) | GI50 (SK-MEL-2): 13.3 µM (inactive) | GI50 (SK-MEL-5): 17.3 µM (inactive) | GI50 (SK-OV-3): 14.7 µM (inactive) | GI50 (SN12C): 17.3 µM (inactive) | GI50 (SNB-19): 17.7 µM (inactive) | GI50 (SNB-75): 15.7 µM (inactive) | GI50 (SR): 54.1 µM (inactive) | GI50 (SW-620): 16.8 µM (inactive) | GI50 (T47D): 17.9 µM (inactive) | GI50 (TK-10): 15.3 µM (inactive) | GI50 (U-251): 17.1 µM (inactive) | GI50 (UACC-257): 15.9 µM (inactive) | GI50 (UACC-62): 17 µM (inactive) | GI50 (UO-31): 16.4 µM (inactive)
